Results from ChEMBL document CHEMBL1127937, “Dual metalloprotease inhibitors. I. constrained peptidomimetics of mercaptoacyl dipeptides” (Bioorg Med Chem Lett, 1994).

Legend:
[1] = target: Angiotensin-converting enzyme (Homo sapiens, UniProt P12821); assay: Tested in vitro for inhibition of Angiotensin converting enzyme (ACE); details: read-out: I50
[2] = target: Neprilysin (Homo sapiens, UniProt P08473); assay: Tested in vitro for inhibition of neutral endopeptidase (NEP); details: read-out: I50
[3] = system: Rattus norvegicus; assay: Tested in vivo for inhibition of angiotensin I -induced pressor response in normotensive rats after iv administration; format: functional

Angiotensin-converting enzyme, sequence (P12821 whole entry): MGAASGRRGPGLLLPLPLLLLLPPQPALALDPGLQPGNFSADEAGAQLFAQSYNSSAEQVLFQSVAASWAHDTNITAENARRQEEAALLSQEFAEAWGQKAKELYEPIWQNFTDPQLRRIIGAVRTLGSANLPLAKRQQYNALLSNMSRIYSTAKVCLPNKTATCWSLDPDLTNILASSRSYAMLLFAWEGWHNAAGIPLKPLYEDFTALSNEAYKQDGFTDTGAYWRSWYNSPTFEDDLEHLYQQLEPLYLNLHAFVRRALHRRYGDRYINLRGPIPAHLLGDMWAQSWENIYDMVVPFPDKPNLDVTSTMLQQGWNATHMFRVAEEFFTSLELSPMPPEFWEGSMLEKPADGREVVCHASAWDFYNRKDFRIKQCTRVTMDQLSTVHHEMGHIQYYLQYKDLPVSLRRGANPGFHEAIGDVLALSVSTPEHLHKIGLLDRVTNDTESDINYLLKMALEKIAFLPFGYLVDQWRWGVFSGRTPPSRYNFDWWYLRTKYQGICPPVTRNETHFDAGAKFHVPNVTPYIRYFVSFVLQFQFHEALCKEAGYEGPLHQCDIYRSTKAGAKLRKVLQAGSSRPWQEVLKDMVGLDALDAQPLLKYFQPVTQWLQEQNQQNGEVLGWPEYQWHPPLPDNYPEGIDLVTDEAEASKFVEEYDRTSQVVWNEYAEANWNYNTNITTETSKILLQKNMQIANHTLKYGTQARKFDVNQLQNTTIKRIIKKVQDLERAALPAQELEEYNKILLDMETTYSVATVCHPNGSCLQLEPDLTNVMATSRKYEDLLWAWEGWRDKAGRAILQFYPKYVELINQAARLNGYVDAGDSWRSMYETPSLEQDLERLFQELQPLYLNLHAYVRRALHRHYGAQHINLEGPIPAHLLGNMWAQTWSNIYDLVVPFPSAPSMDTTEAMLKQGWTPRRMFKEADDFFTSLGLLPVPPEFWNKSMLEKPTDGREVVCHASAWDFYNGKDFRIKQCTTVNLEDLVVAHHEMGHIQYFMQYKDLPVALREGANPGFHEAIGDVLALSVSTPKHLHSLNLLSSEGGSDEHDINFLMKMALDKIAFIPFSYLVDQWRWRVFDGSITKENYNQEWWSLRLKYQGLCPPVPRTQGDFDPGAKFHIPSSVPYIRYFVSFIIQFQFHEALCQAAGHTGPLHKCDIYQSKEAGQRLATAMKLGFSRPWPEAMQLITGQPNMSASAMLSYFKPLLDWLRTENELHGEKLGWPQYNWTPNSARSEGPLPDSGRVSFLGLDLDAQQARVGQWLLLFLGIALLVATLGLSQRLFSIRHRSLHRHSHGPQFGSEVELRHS
Neprilysin, sequence (P08473 whole entry): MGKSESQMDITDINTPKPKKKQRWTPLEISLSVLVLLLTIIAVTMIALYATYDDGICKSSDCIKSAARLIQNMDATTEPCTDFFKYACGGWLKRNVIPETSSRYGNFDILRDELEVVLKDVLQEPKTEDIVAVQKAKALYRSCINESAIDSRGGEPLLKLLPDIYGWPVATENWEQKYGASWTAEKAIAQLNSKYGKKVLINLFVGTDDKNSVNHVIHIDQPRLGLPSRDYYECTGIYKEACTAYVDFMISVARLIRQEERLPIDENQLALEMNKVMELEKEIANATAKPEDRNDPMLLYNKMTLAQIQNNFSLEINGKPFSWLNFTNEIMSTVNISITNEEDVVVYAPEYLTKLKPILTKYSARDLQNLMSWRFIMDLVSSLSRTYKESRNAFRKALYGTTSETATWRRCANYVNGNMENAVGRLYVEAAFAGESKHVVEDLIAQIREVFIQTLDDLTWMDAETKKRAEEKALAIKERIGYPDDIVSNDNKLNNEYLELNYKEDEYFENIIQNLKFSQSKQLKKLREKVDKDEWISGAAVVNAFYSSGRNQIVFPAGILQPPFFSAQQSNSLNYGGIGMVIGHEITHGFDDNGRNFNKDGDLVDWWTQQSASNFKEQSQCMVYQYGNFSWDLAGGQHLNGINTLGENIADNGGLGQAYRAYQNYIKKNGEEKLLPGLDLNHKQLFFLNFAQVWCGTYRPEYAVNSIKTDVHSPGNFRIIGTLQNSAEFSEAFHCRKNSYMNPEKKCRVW

Structure (SMILES)	IC50 [1] [nM]	IC50 [2] [nM]	ED50 [3] [µmol/kg]
C[C@H]1Oc2ccccc2N(CCC(=O)O)C(=O)[C@H]1NC(=O)[C@@H](S)Cc1ccccc1	18	83	–
C[C@@H]1Oc2ccccc2N(CC(=O)O)C(=O)[C@H]1NC(=O)[C@@H](S)Cc1ccccc1	36	5.2	2.1
C[C@H](NC(=O)[C@@H](CS)Cc1ccccc1)C(=O)N1CCC[C@H]1C(=O)O	4	6.6	0.5
O=C(O)CCN1C(=O)[C@@H](NC(=O)[C@@H](S)Cc2ccccc2)CCc2ccccc21	36	2.4	1.34
C[C@H](NC(=O)[C@@H](S)Cc1ccccc1)C(=O)N1CCC[C@H]1C(=O)O	30	400	0.06
O=C(O)CCN1C(=O)[C@@H](NC(=O)[C@@H](S)Cc2ccccc2)COc2ccccc21	31	1.2	1.2
C[C@H]1Oc2ccccc2N(CC(=O)O)C(=O)[C@H]1NC(=O)[C@@H](S)Cc1ccccc1	13	118	0.015

The next lines start with results.

IC50 [1] [nM]	IC50 [2] [nM]	Structure (SMILES)	ED50 [3] [µmol/kg]
13	64	O=C(O)CN1C(=O)[C@@H](NC(=O)[C@@H](S)Cc2ccccc2)CSc2ccccc21	0.14
28	3.1	O=C(O)CN1C(=O)[C@@H](NC(=O)[C@@H](S)Cc2ccccc2)COc2ccccc21	0.26
4.4	0.6	O=C(O)CN1C(=O)[C@@H](NC(=O)[C@@H](CS)Cc2ccccc2)COc2ccccc21	5.8
14	2.2	O=C(O)CCN1C(=O)[C@@H](NC(=O)[C@@H](S)Cc2ccccc2)CSc2ccccc21	0.33
4.8	2.1	O=C(O)CN1C(=O)[C@@H](NC(=O)[C@@H](CS)Cc2ccccc2)CCc2ccccc21	0.52
–	6.1	O=C(O)CN1C(=O)[C@@H](NC(=O)[C@@H](S)Cc2ccccc2)CCc2ccccc21	0.02
17	1	O=C(O)CN1C(=O)[C@@H](NC(=O)[C@@H](CS)Cc2ccccc2)CSc2ccccc21	4
36	1.7	O=C(O)CCN1C(=O)[C@@H](NC(=O)[C@@H](CS)Cc2ccccc2)CCc2ccccc21	13.3
